Reference: ChEMBL document CHEMBL1137417, “Design, synthesis, and biological evaluation of hydroquinone derivatives of 17-amino-17-demethoxygeldanamycin as potent, water-soluble inhibitors of Hsp90” (J Med Chem, 2006)

Experiments:
[1] = molecular target: T1, Heat shock protein HSP90 (Homo sapiens, UniProt P07900+P08238); assay: Upregulation of Hsp70 in SKOV3 cells; format: functional, cell-based; details: sk-ov-3
[2] = molecular target: T1, Heat shock protein HSP90; assay: Upregulation of Hsp70 in SKBR3 cells; format: functional, cell-based; details: sk-br-3
[3] = molecular target: Endoplasmin (Canis lupus familiaris, UniProt P41148); assay: Inhibition of BODIPY-AG binding to dog Grp94
[4] = molecular target: T1, Heat shock protein HSP90; assay: Inhibition of BODIPY-AG binding to human HSP90; format: protein assay
[5] = tested on: SK-BR-3; assay: Inhibition of human SKBR3 cell growth; format: functional
[6] = molecular target: T1, Heat shock protein HSP90; assay: Degradation of Her2 in SKOV3 cells; format: functional, cell-based; details: sk-ov-3
[7] = tested on: SK-OV-3; assay: Inhibition of human SKOV3 cell growth; format: functional
[8] = molecular target: T1, Heat shock protein HSP90; assay: Degradation of Her2 in SKBR3 cells; format: functional, cell-based; details: sk-br-3

Endoplasmin, sequence (P41148 whole entry): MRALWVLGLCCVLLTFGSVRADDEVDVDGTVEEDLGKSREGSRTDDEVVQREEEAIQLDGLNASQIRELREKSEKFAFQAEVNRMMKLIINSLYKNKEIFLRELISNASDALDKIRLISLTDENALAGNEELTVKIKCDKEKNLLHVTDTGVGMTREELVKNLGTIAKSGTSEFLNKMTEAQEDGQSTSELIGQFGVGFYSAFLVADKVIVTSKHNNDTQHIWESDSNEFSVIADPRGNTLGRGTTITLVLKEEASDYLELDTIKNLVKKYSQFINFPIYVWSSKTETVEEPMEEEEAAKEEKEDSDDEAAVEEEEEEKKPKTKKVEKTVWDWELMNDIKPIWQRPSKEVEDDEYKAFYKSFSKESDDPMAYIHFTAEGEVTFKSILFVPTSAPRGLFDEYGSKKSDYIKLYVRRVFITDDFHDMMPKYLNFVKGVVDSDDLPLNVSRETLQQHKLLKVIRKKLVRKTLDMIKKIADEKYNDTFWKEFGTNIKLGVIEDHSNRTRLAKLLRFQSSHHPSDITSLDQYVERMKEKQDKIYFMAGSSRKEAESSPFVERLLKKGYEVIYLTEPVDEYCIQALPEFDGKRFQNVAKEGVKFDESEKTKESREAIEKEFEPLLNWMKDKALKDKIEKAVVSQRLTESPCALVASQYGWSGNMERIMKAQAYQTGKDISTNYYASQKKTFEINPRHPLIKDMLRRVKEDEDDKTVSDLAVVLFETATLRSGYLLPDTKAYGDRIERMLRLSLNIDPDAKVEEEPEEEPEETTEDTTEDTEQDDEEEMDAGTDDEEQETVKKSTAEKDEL

SMILES | EC50 [1] [µM] | EC50 [2] [µM] | EC50 [3] [µM] | EC50 [4] [µM] | GI50 [5] [µM] | EC50 [6] [µM] | GI50 [7] [µM] | EC50 [8] [µM]
CO[C@H]1/C=C\C=C(/C)C(=O)Nc2cc(O)c(N)c(c2O)C[C@@H](C)C[C@H](OC)[C@H](O)[C@@H](C)/C=C(\C)[C@@H]1OC(N)=O.Cl | 0.01 | 0.058 | 0.048 | 0.034 | 0.05 | 0.031 | 0.017 | –
CO[C@H]1/C=C\C=C(/C)C(=O)Nc2cc(O)c(NC[C@H](O)CO)c(c2O)C[C@@H](C)C[C@H](OC)[C@H](O)[C@@H](C)/C=C(\C)[C@@H]1OC(N)=O.Cl | > 10 | 0.102 | 0.131 | 0.091 | 0.832 | 0.756 | 1.11 | 0.321
CO[C@H]1/C=C\C=C(/C)C(=O)NC2=CC(=O)C(NC[C@H](O)CO)=C(C[C@@H](C)C[C@H](OC)[C@H](O)[C@@H](C)/C=C(\C)[C@@H]1OC(N)=O)C2=O | 0.853 | 0.14 | 0.072 | 0.066 | 0.724 | 4.585 | 2.02 | 0.141
CO[C@H]1/C=C\C=C(/C)C(=O)NC2=CC(=O)C(N)=C(C[C@@H](C)C[C@H](OC)[C@H](O)[C@@H](C)/C=C(\C)[C@@H]1OC(N)=O)C2=O | 0.006 | 0.017 | 0.048 | 0.034 | 0.025 | 0.053 | 0.014 | 0.008
C=CCNc1c(O)cc2nc3oc2c1C[C@@H](C)C[C@H](OC)[C@H](O)[C@@H](C)/C=C(\C)[C@H](OC(N)=O)[C@@H](OC)/C=C\C=C\3C.Cl | 3.229 | – | > 10 | > 10 | 1.78 | 0.435 | 0.371 | 0.585
C=CCn1c(=O)oc2cc3c(O)c(c21)C[C@@H](C)C[C@H](OC)[C@H](O)[C@@H](C)/C=C(\C)[C@H](OC(N)=O)[C@@H](OC)/C=C\C=C(/C)C(=O)N3 | 2.283 | 0.384 | – | 0.603 | 0.583 | 0.742 | 1.24 | 1.046
C=CCN1C(=O)COc2cc3c(O)c(c21)C[C@@H](C)C[C@H](OC)[C@H](O)[C@@H](C)/C=C(\C)[C@H](OC(N)=O)[C@@H](OC)/C=C\C=C(/C)C(=O)N3 | 1.005 | 0.311 | – | 0.541 | 0.739 | 0.415 | 0.726 | 0.19
Nc1ncnc2c1ncn2[C@@H]1O[C@H](COP(=O)(O)OP(=O)(O)O)[C@@H](O)[C@H]1O [ADENOSINE DIPHOSPHATE] | – | – | 21 | 87 | – | – | – | –
Nc1ncnc2c1ncn2[C@@H]1O[C@H](COP(=O)(O)OP(=O)(O)OP(=O)(O)O)[C@@H](O)[C@H]1O [ADENOSINE TRIPHOSPHATE] | – | – | 19 | 1500 | – | – | – | –
CO[C@H]1/C=C\C=C(/C)C(=O)NC2=CC(=O)C(NCCN(C)C)=C(C[C@@H](C)C[C@H](OC)[C@H](O)[C@@H](C)/C=C(\C)[C@@H]1OC(N)=O)C2=O [ALVESPIMYCIN] | – | – | 0.065 | – | 0.029 | – | 0.032 | –
C=CCNc1c(O)cc2c(O)c1C[C@@H](C)C[C@H](OC)[C@H](O)[C@@H](C)/C=C(\C)[C@H](OC(N)=O)[C@@H](OC)/C=C\C=C(/C)C(=O)N2.Cl [RETASPIMYCIN HYDROCHLORIDE] | 0.016 | – | 0.119 | 0.063 | 0.022 | 0.027 | 0.052 | 0.02
C=CCNC1=C2C[C@@H](C)C[C@H](OC)[C@H](O)[C@@H](C)/C=C(\C)[C@H](OC(N)=O)[C@@H](OC)/C=C\C=C(/C)C(=O)NC(=CC1=O)C2=O [TANESPIMYCIN] | – | – | 0.124 | – | 0.017 | – | 0.015 | –
